# Test results reported in patent US12247031B2, “Cyclobutyl pyrazolopyrimidine PDE9 inhibitors” (Merck Sharp & Dohme LLC, priority 2018, dated 2025).
# Target: Human PDE9 (PDE9A2) (Homo sapiens (Human), UniProt O76083)
# Experiment: PDE9 IMAP fluorescence polarization assay
# Assay type: biochemical
# Settings: human PDE9A2, FAM-cGMP substrate 50 nM, IMAP FP, apparent inhibition constant
# Protocol: The activity of the compounds in accordance with the present invention as PDE9 inhibitors may be readily determined without undue experimentation using a fluorescence polarization (FP) methodology that is well known in the art (Huang, W., et al., J. Biomol Screen. 2002, 7: 215).
# In a typical experiment the PDE9 inhibitory activity of the compounds of the present invention was determined in accordance with the following experimental method.
# Human PDE9 (PDE9A2, GenBank Accession No. NM_001001567), full length with N-terminal GST tag, was purchased from BPS Bioscience. The fluorescence polarization assay for cyclic nucleotide phosphodiesterases was performed using an IMAP® FP kit supplied by Molecular Devices, Sunnyvale, CA (product #R8139). IMAP® technology has been applied previously to phosphodiesterase assays (Huang, W., et al., J. Biomol Screen. 2002, 7: 215).
# Fluorescence polarization (mP) was calculated from the parallel (S) and perpendicular (P) fluorescence of each sample well and the analogous values for the median control well, containing only substrate (So and Po), using the following equation: Polarization (mP)=1000*(S/So−P/Po)/(S/So+P/Po).
# Dose-inhibition profiles for each compound were characterized by fitting the mP data to a four-parameter equation given below. The apparent inhibition constant (KI), the maximum inhibition at the low plateau relative to “100% Inhibition Control” (Imax; e.g. 1=>same as this control), the minimum inhibition at the high plateau relative to the “0% Inhibition Control” (Imin, e.g. 0=>same as the no drug control) and the Hill slope (nH) are determined by a non-linear least squares fitting of the mP values as a function of dose of the compound using an in-house software based on the procedures described by Mosser et al., JALA. 2003, 8: 54-63, using the following equation: […]
row,Structure (SMILES),Ki [nM]
1,"Cc1nnc(C2CCC2c2nc3c(c(C#N)nn3C(C)c3ccc(C(F)(F)F)nc3)c(=O)[nH]2)o1 (single isomer, unassigned) [Example 1, 6-(2-(5-methyl-1,3,4-oxadiazol-2-yl)cyclobutyl)-4-oxo-1-(1-(6-(trifluoromethyl)pyridin-3-yl)ethyl)-4,5-dihydro-1H-pyrazolo[3,4-d]pyrimidine-3-carbonitrile]",28.9
2,"Cc1nnc(C2CCC2c2nc3c(c(C#N)nn3C(C)c3ccc(C(F)(F)F)nc3)c(=O)[nH]2)o1 (single isomer, unassigned) [Example 2, 6-(2-(5-methyl-1,3,4-oxadiazol-2-yl)cyclobutyl)-4-oxo-1-(1-(6-(trifluoromethyl)pyridin-3-yl)ethyl)-4,5-dihydro-1H-pyrazolo[3,4-d]pyrimidine-3-carbonitrile]",118
3,"Cc1nnc(C2CCC2c2nc3c(c(C#N)nn3C(C)c3ccc(C(F)(F)F)nc3)c(=O)[nH]2)o1 (single isomer, unassigned) [Example 3, 6-(2-(5-methyl-1,3,4-oxadiazol-2-yl)cyclobutyl)-4-oxo-1-(1-(6-(trifluoromethyl)pyridin-3-yl)ethyl)-4,5-dihydro-1H-pyrazolo[3,4-d]pyrimidine-3-carbonitrile]",221
4,"Cc1nnc(C2CCC2c2nc3c(c(C#N)nn3C(C)c3ccc(C(F)(F)F)nc3)c(=O)[nH]2)o1 (single isomer, unassigned) [Example 4, 6-(2-(5-methyl-1,3,4-oxadiazol-2-yl)cyclobutyl)-4-oxo-1-(1-(6-(trifluoromethyl)pyridin-3-yl)ethyl)-4,5-dihydro-1H-pyrazolo[3,4-d]pyrimidine-3-carbonitrile]",229
5,"Cc1nnc(C2CCC2c2nc3c(c(C#N)nn3C(C)c3ccc(C(F)(F)F)nc3)c(=O)[nH]2)o1 (single isomer, unassigned) [Example 5, 6-(2-(5-methyl-1,3,4-oxadiazol-2-yl)cyclobutyl)-4-oxo-1-(1-(6-(trifluoromethyl)pyridin-3-yl)ethyl)-4,5-dihydro-1H-pyrazolo[3,4-d]pyrimidine-3-carbonitrile]",35
6,"Cc1nnc(C2CCC2c2nc3c(c(C#N)nn3C(C)c3ccc(C(F)(F)F)nc3)c(=O)[nH]2)o1 (single isomer, unassigned) [Example 6, 6-(2-(5-methyl-1,3,4-oxadiazol-2-yl)cyclobutyl)-4-oxo-1-(1-(6-(trifluoromethyl)pyridin-3-yl)ethyl)-4,5-dihydro-1H-pyrazolo[3,4-d]pyrimidine-3-carbonitrile]",42.7
7,"Cc1nnc(C2CCC2c2nc3c(c(C#N)nn3C(C)c3ccc(C(F)(F)F)nc3)c(=O)[nH]2)o1 (single isomer, unassigned) [Example 7, 6-(2-(5-methyl-1,3,4-oxadiazol-2-yl)cyclobutyl)-4-oxo-1-(1-(6-(trifluoromethyl)pyridin-3-yl)ethyl)-4,5-dihydro-1H-pyrazolo[3,4-d]pyrimidine-3-carbonitrile]",167
8,"C[C@@H](c1ccc(C(F)(F)F)nc1)n1nc(C#N)c2c(=O)[nH]c(C3CCC3c3ccccn3)nc21 (single isomer, unassigned) [Example 8]",0.034
9,"C[C@@H](c1ccc(C(F)(F)F)nc1)n1nc(C#N)c2c(=O)[nH]c(C3CCC3c3ccccn3)nc21 (single isomer, unassigned) [Example 9]",2.72
10,"C[C@@H](c1ccc(C(F)(F)F)nc1)n1nc(C#N)c2c(=O)[nH]c(C3CCC3c3ccc(F)cn3)nc21 (single isomer, unassigned) [Example 13]",608
11,"C[C@@H](c1ccc(C(F)(F)F)nc1)n1nc(C#N)c2c(=O)[nH]c(C3CCC3c3ccc(F)cn3)nc21 (single isomer, unassigned) [Example 14]",0.12
12,"C[C@@H](c1ccc(C(F)(F)F)nc1)n1nc(C#N)c2c(=O)[nH]c(C3CCC3c3ncccc3F)nc21 (single isomer, unassigned) [Example 15]",14.1
13,"C[C@@H](c1ccc(C(F)(F)F)nc1)n1nc(C#N)c2c(=O)[nH]c(C3CCC3c3ncccc3F)nc21 (single isomer, unassigned) [Example 16]",0.461
14,"C[C@@H](c1ccc(C(F)(F)F)nc1)n1nc(C#N)c2c(=O)[nH]c(C3CCC3c3ccn(C)n3)nc21 (single isomer, unassigned) [Example 17]",43.2
15,"C[C@@H](c1ccc(C(F)(F)F)nc1)n1nc(C#N)c2c(=O)[nH]c(C3CCC3c3ccn(C)n3)nc21 (single isomer, unassigned) [Example 18]",35.9
16,"C[C@@H](c1ccc(C(F)(F)F)nc1)n1nc(C#N)c2c(=O)[nH]c(C3CCC3c3ccnn3C)nc21 (single isomer, unassigned) [Example 19]",0.145

row,Structure (SMILES),Ki [nM]
1,"C[C@@H](c1ccc(C(F)(F)F)nc1)n1nc(C#N)c2c(=O)[nH]c(C3CCC3c3cncnc3)nc21 (single isomer, unassigned) [Example 20]",0.602
2,"C[C@@H](c1ccc(C(F)(F)F)nc1)n1nc(C#N)c2c(=O)[nH]c(C3CCC3c3cncnc3)nc21 (single isomer, unassigned) [Example 21]",176
3,"CC(c1ccc(C(F)(F)F)nc1)n1nc(C#N)c2c(=O)[nH]c(C3CCC3n3cc(C#N)cn3)nc21 (single isomer, unassigned) [Example 24, 6-(2-(4-cyano-1H-pyrazol-1-yl)cyclobutyl)-4-oxo-1-(1-(6-(trifluoromethyl)pyridin-3-yl)ethyl)-4,5-dihydro-1H-pyrazolo[3,4-d]pyrimidine-3-carbonitrile]",22.3
4,"CC(c1ccc(C(F)(F)F)nc1)n1nc(C#N)c2c(=O)[nH]c(C3CCC3n3cc(C#N)cn3)nc21 (single isomer, unassigned) [Example 25, 6-(2-(4-cyano-1H-pyrazol-1-yl)cyclobutyl)-4-oxo-1-(1-(6-(trifluoromethyl)pyridin-3-yl)ethyl)-4,5-dihydro-1H-pyrazolo[3,4-d]pyrimidine-3-carbonitrile]",0.35
5,"CC(c1ccc(C(F)(F)F)nc1)n1nc(C#N)c2c(=O)[nH]c(C3CCC3n3ccc(C#N)n3)nc21 (single isomer, unassigned) [Example 26, 6-(2-(3-cyano-1H-pyrazol-1-yl)cyclobutyl)-4-oxo-1-(1-(6-(trifluoromethyl)pyridin-3-yl)ethyl)-4,5-dihydro-1H-pyrazolo[3,4-d]pyrimidine-3-carbonitrile]",96.1
6,"CC(c1ccc(C(F)(F)F)nc1)n1nc(C#N)c2c(=O)[nH]c(C3CCC3n3ccc(C#N)n3)nc21 (single isomer, unassigned) [Example 27, 6-(2-(3-cyano-1H-pyrazol-1-yl)cyclobutyl)-4-oxo-1-(1-(6-(trifluoromethyl)pyridin-3-yl)ethyl)-4,5-dihydro-1H-pyrazolo[3,4-d]pyrimidine-3-carbonitrile]",1.51
7,"CC(c1ccc(C(F)(F)F)nc1)n1nc(C#N)c2c(=O)[nH]c(C3CCC3n3ccc(C#N)n3)nc21 (single isomer, unassigned) [Example 28, 6-(2-(3-cyano-1H-pyrazol-1-yl)cyclobutyl)-4-oxo-1-(1-(6-(trifluoromethyl)pyridin-3-yl)ethyl)-4,5-dihydro-1H-pyrazolo[3,4-d]pyrimidine-3-carbonitrile]",31
8,"CC(c1ccc(C(F)(F)F)nc1)n1nc(C#N)c2c(=O)[nH]c(C3CCC3n3ccc(C#N)n3)nc21 (single isomer, unassigned) [Example 29, 6-(2-(3-cyano-1H-pyrazol-1-yl)cyclobutyl)-4-oxo-1-(1-(6-(trifluoromethyl)pyridin-3-yl)ethyl)-4,5-dihydro-1H-pyrazolo[3,4-d]pyrimidine-3-carbonitrile]",0.256
9,"C[C@@H](c1ccc(C(F)(F)F)nc1)n1nc(C#N)c2c(=O)[nH]c(C3CCC3n3cc(F)cn3)nc21 (single isomer, unassigned) [Example 34]",5.9
10,"C[C@@H](c1ccc(C(F)(F)F)nc1)n1nc(C#N)c2c(=O)[nH]c(C3CCC3n3cc(F)cn3)nc21 (single isomer, unassigned) [Example 35]",0.402
11,"C[C@@H](c1ccc(C(F)(F)F)nc1)n1nc(C#N)c2c(=O)[nH]c(C3CCC3n3cccn3)nc21 (single isomer, unassigned) [Example 36]",148
12,"C[C@@H](c1ccc(C(F)(F)F)nc1)n1nc(C#N)c2c(=O)[nH]c(C3CCC3n3cccn3)nc21 (single isomer, unassigned) [Example 37]",124
13,"C[C@@H](c1ccc(C(F)(F)F)nc1)n1nc(C#N)c2c(=O)[nH]c(C3CCC3n3cc(C4CC4)cn3)nc21 (single isomer, unassigned) [Example 38]",11
14,"C[C@@H](c1ccc(C(F)(F)F)nc1)n1nc(C#N)c2c(=O)[nH]c(C3CCC3n3cc(C4CC4)cn3)nc21 (single isomer, unassigned) [Example 39]",1.75
15,"CC(C1CCOCC1)n1nc(C#N)c2c(=O)[nH]c(C3CCC3n3cc(C#N)cn3)nc21 (single isomer, unassigned) [Example 48, 6-(2-(4-cyano-1H-pyrazol-1-yl)cyclobutyl)-4-oxo-1-(1-(tetrahydro-2H-pyran-4-yl)ethyl)-4,5-dihydro-1H-pyrazolo[3,4-d]pyrimidine-3-carbonitrile]",366
